Several values for one entry are separate records, joined by “and”; a condition that tells them apart may be missing. Equal values may be shown once.
Assays:
[1] = test system: human colorectal carcinoma (HCT116) cells; assay: SRB cytotoxic assay, HCT116; format: cell-based; conditions: HCT-116, single dose 100 µg/mL, 48 h, read-out: %Inhibition at100 µg/mL HCT116
Protocol: (§1) All the prepared compounds were screened at a concentration of 100 µg/mL against six different human cell lines: human laryngeal carcinoma (HEP2), human colorectal carcinoma (HCT116), human breast carcinoma (MCF7), human Lung carcinoma (A549), human liver carcinoma (HEPG2), and normal African Green monkey kidney cell line (VERO). Doxorubicin was used as a positive control for comparison purposes.
(§2) The human laryngeal carcinoma (HEP2), colorectal carcinoma (HCT116), breast carcinoma (MCF7), Lung carcinoma (A549), liver carcinoma (HEPG2), and normal African Green monkey kidney cell line (VERO) were purchased from American Tissue Culture Collection (Rockville, MD, USA). The cells were treated for 48 h with a single dose (100 µg/mL) of all the tested chalcones. […] In brief, the cells were seeded in a 96-well microtiter plate at a concentration of 5×10^3 cells/well in 100 µL fresh RPMI-1640 medium and left to attach to the plates for 24 h. Then, cells were incubated with 100 μL of different concentrations (50, 25, 12.5, 6.25, and 0.0 µg/mL) of 5c in triplicate at 37 °C for 48 h. After that, the cells were fixed with 10 µL cold 100% Trichloroacetic acid (TCA) for 1h at 4 °C. The wells were then washed 1 time with distilled water using (automatic Tecan washer, Germany) and stained for 30 min at room temperature with 50 µL 0.4% SRB dissolved in 1% acetic acid. The plates were air-dried and the dye was solubilized with 100 µl/well of 1M tris base (pH 10.5) for 5 min. The optical density (O.D.) of each well was measured spectrophotometrically at 570 nm with an ELISA microplate reader (Sunrise Tecan reader, Germany) with automatic shaking for 30 seconds before reading. The mean background absorbance was subtracted automatically and mean values for each drug concentration were calculated. The percentage of cell survival was calculated as follows: Survival fraction= O.D. (treated cells)/ O.D. (control cells) (Bhat et al. [2023]).

[2] = test system: human Lung carcinoma (A549) cells; assay: SRB cytotoxic assay, A549; format: cell-based; conditions: single dose 100 µg/mL, 48 h, read-out: %Inhibition at100 µg/mL A549
Protocol: as §1, §2

MCF7 cells [3] = assay: Flow cytometric analysis of cell cycle, MCF7; format: cell-based, human; conditions: MCF7, IC50 of 5c, 48 h
Protocol: In DMEM-supplemented media, cells were plated in 12-well plates at a cell density of 6–8×10^5 per well. After twenty-four hours, cells were cultured for an additional 48 hours with the IC50 of the target compound. The untreated cells were used as a negative control. After 48 h of incubation, the treated cells were centrifuged at 1,200 rpm and 4 °C for 10 min. After discarding the supernatant, the wells were then given a single phosphate-buffered saline (PBS) wash and then centrifuged for 10 min at 1,200 rpm. Trypsin/EDTA was used to collect the cells, and after one PBS wash, they were resuspended in 0.5 mL of 0.05% Triton X-100 for 10 min at room temperature. Each cell suspension was stained by being given 1 mL of 50 µg/mL propidium iodide (PI) to be left at room temperature in the darkness for 20 minutes. The analysis of the cell cycle was done by a flow cytometer (Becton Dickenson (BD) FACSCalibur, USA) (Michalkova et al. [2022]).

MCF7 cells [4] = assay: Wound healing scratch assay, MCF7; format: cell-based, human; conditions: MCF7, 5c at its IC50, 48 h; untreated C0 518.531±12.437, C48 h 160.647±61.276
Protocol: To examine the effect of chalcone 5c on the migration properties of the MCF7 and HEP2 cells, the wound-healing scratch assay was used. […] Chalcone 5c at its IC50 reduced the ability to close the scrape wound and decreased the number of migrating MCF7 and HEP2 cells compared to the untreated cells (Fig. 4 and Table 6). The scratch gap percentage in 5c treated MCF7 was 344.684±41.224 relative to the control cells (160.647±61.276) after 48 h of treatment. The scratch gap in HEP2 treated with 5c was 567.281±112.789 compared to the untreated control HEP2 cells (211.604±79.883) after 48 h.
MCF7 and HEP2 treated and untreated cells were detached from the tissue culture plate using 0.25% Trypsin-EDTA solution. Cells pellet was prepared in a 15 mL conical tube by centrifugation. The supernatant was aspirated, and the cells were re-suspended in culture media. The appropriate number of cells was platted in a 6-well plate for 100% confluence in 24 hours. In a sterile environment (typically a biosafety hood), a 200 μL pipette tip was used to press firmly against the […] of the tissue culture plate and swiftly made a vertical wound down through the cell monolayer. Carefully, the media and cell debris were aspirated. Slowly, enough culture media was added against the good wall to cover the bottom of the well and avoid detaching additional cells. […]

In the case of `COc1ccc(NC(=O)COc2ccc(C=CC(=O)c3cccs3)cc2)cc1` [Compound 5c, N-(4-Methoxyphenyl)-2-(4-(3-oxo-3-(thiophen-2-yl)prop-1-en-1-yl)phenoxy)acetamide], the inhibition at 100 µg/mL [1] is reported as 41.9 ± 1.8%, the inhibition at 100 µg/mL [2] is reported as 65 ± 2.1% and the “Percentage of DNA in G2-M phase” value (MCF7 cells [3]; untreated control 8.95±0.38) is reported as 2.8% and 2.855±0.07778%. The “Percentage of DNA in S phase” value (MCF7 cells [3]; untreated control 45.405±1.97283) was 42.84% and 42.845±0.4596%, the “Percentage of DNA in G0-G1 phase” value (MCF7 cells [3]; untreated control 45.585±1.548) was 54.3% and 54.3±0.5374% and the “% Scratch gap” value (MCF7 cells [4]) was 344.684±41.224%.
